This note sets out measurements from US20150299721A1, “BIOMASS PRODUCTION INCREASING GENE AND TRANSGENIC PLANT USING SAME” (POSTECH ACADEMY-INDUSTRY FOUNDATION, priority 2012, published 2015).

This assay concerns BAT1 gene-overexpressing plant. In words: Restoring of hypocotyl height of BAT1 gene-overexpressing plant by brassinosteroid in the medium. In kind it is in vivo, Arabidopsis thaliana. The conditions noted are these: brassinosteroid added at 0.3 μM or 3 μM to 0.5x B5 medium, measured after 7 days (FIG. 5A). Here is the method: The wild type and the BAT1 gene-overexpressing plant were vertically grown in a greenhouse whose temperature was regulated at about 23° C. under a long-day condition having a 24-hour period of 16-hour light condition/8-hour dark condition in 0.5× B5 media. A hypocotyl of the vertical-grown plant was distinctively shown in the BAT1 gene-overexpressing plant. Various brassinosteroids were treated at various concentrations, and a height of the hypocotyl was measured after 7 days. As the brassinosteroid, brassinolide (BL), castasterone (CS), teasterone (TE), or typhasterol (TY) was added at a concentration of 0.3 μM or 3 μM to the medium.

As for `CC(C)[C@H](C)[C@@H](O)[C@H](O)[C@@H](C)[C@H]1CC[C@H]2[C@@H]3COC(=O)[C@H]4C[C@H](O)[C@H](O)C[C@]4(C)[C@H]3CC[C@]12C` [brassinolide], the “length (height) of hypocotyl” value is “significantly increased”. Consider `CC(C)[C@H](C)[C@@H](O)[C@H](O)[C@@H](C)[C@H]1CC[C@H]2[C@@H]3CC(=O)[C@H]4C[C@H](O)[C@H](O)C[C@]4(C)[C@H]3CC[C@]12C` [castasterone], for which the “length (height) of hypocotyl” value was “significantly increased”.

Regarding `CC(C)[C@H](C)[C@@H](O)[C@H](O)[C@@H](C)[C@H]1CC[C@H]2[C@@H]3CC(=O)[C@H]4C[C@H](O)CC[C@]4(C)[C@H]3CC[C@]12C` [typhasterol], the “length (height) of hypocotyl” value was “significantly increased”.
